Test results from ChEMBL document CHEMBL3045592, “Studies of O,O-dimethyl α-(2,4-dichlorophenoxyacetoxy)ethylphosphonate (HW02) as a new herbicide. 1. Synthesis and herbicidal activity of HW02 and analogues as novel inhibitors of pyruvate dehydrogenase complex” (J Agric Food Chem, 2011).

Columns and labels:
Cucumis sativus [1] = assay: Herbicidal activity against Cucumis sativus Jin 4 (cucumber) assessed as inhibition of root growth after 3 days; assay type: functional, organism-based; conditions: Jin 4, 72 h
Digitaria sanguinalis [2] = assay: Pre-emergence herbicidal activity against Digitaria sanguinalis (hairy crabgrass) assessed as growth inhibition at 1500 ai g/ha after 20 days by green house test; assay type: functional
[3] = Toxicity against Oryza sativa (rice) assessed as growth inhibition at 450 ai g/ha post-emergent application measured after 20 days by green house crop selectivity test; assay type: organism-based; conditions: in vivo, read-out: GI
Digitaria sanguinalis [4] = assay: Pre-emergence herbicidal activity against Digitaria sanguinalis (hairy crabgrass) assessed as growth inhibition at 150 ai g/ha after 20 days by green house test; assay type: functional
Cucumis sativus [5] = assay: Herbicidal activity against Cucumis sativus Jin 4 (cucumber) assessed as inhibition of stem growth after 3 days; assay type: functional, organism-based; conditions: Jin 4, 72 h
[6] = biological target: Pyruvate dehydrogenase complex (Pisum sativum) (UniProt P52902+P52904); assay: Inhibition of PDHc in Pisum sativum Zhongwan-2 (pea) shoot mitochondria assessed as decrease in rate of NADH formation using sodium pyruvate as substrate at 10 microg/g preincubated for 25 min before substrate addition measured after 1 min by spectrophotometric assay; assay type: protein-complex assay; conditions: Lathyrus oleraceus
Amaranthus spinosus [7] = assay: Post-emergence herbicidal activity against Amaranthus spinosus assessed as growth inhibition at 75 ai g/ha after 20 days by green house test; assay type: functional
Amaranthus spinosus [8] = assay: Pre-emergence herbicidal activity against Amaranthus spinosus assessed as growth inhibition at 150 ai g/ha after 20 days by green house test; assay type: functional
Chenopodium album = assay: Post-emergence herbicidal activity against Chenopodium album assessed as growth inhibition at 75 ai g/ha after 20 days by green house test; assay type: functional
Amaranthus retroflexus [9] = assay: Post-emergence herbicidal activity against Amaranthus retroflexus assessed as growth inhibition at 450 ai g/ha after 20 days by green house test; assay type: functional
Abutilon theophrasti = assay: Pre-emergence herbicidal activity against Abutilon theophrasti (velvetleaf) assessed as growth inhibition at 75 ai g/ha after 20 days by green house test; assay type: functional
[10] = biological target: T1, Pyruvate dehydrogenase complex (Pisum sativum, UniProt P52902+P52904); assay: Inhibition of PDHc in Pisum sativum Zhongwan-2 (pea) shoot mitochondria assessed as decrease in rate of NADH formation using sodium pyruvate as substrate preincubated for 25 min before substrate addition measured after 1 min by spectrophotometric assay; assay type: protein-complex assay, Lathyrus oleraceus
T1 sequence (P52902 whole entry): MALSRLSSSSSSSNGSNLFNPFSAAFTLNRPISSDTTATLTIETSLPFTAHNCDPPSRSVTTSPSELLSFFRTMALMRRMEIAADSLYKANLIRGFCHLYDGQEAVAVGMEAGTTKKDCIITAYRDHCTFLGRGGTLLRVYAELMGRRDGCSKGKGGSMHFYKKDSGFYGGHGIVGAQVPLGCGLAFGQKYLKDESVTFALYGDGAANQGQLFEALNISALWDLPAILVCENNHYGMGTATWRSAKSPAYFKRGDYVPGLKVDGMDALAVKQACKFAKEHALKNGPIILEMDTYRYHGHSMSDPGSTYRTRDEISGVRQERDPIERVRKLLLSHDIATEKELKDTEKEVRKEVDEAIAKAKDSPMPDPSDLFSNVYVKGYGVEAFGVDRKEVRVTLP
T1 sequence (P52904 whole entry): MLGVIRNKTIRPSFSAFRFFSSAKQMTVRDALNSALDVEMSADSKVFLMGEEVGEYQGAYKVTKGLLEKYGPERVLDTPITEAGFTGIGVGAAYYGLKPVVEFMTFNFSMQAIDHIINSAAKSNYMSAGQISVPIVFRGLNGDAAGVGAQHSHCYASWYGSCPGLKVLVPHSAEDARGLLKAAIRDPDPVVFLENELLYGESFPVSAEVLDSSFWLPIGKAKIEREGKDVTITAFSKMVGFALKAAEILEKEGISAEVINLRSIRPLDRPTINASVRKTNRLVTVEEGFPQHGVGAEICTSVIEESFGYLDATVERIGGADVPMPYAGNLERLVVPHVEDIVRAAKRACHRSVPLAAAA

Setaria viridis = assay: Post-emergence herbicidal activity against Setaria viridis (green foxtail) assessed as growth inhibition at 75 ai g/ha after 20 days by green house test; assay type: functional
[11] = Toxicity against Zea mays Gao you 1 (maize) assessed as growth inhibition at 600 ai g/ha post-emergent application measured after 20 days by green house crop selectivity test; assay type: organism-based; conditions: Gao you 1, zea mays, in vivo, read-out: GI
Eclipta prostrata [12] = assay: Post-emergence herbicidal activity against Eclipta prostrata assessed as growth inhibition at 75 ai g/ha after 20 days by green house test; assay type: functional
Digitaria sanguinalis [13] = assay: Post-emergence herbicidal activity against Digitaria sanguinalis (hairy crabgrass) assessed as growth inhibition at 300 ai g/ha after 20 days by green house test; assay type: functional
Amaranthus retroflexus [14] = assay: Post-emergence herbicidal activity against Amaranthus retroflexus assessed as growth inhibition at 18.75 ai g/ha after 20 days by green house test; assay type: functional
Eclipta prostrata [15] = assay: Post-emergence herbicidal activity against Eclipta prostrata assessed as growth inhibition at 37.5 ai g/ha after 20 days by green house test; assay type: functional
[16] = tested on: Brassica rapa subsp. oleifera; assay: Post-emergence herbicidal activity against Brassica rapa subsp. oleifera Si Yue Man assessed as growth inhibition at 37.5 ai g/ha after 20 days by green house test; assay type: functional
[17] = Toxicity against Oryza sativa (rice) assessed as growth inhibition at 225 ai g/ha post-emergent application measured after 20 days by green house crop selectivity test; assay type: organism-based; conditions: in vivo, read-out: GI
Portulaca oleracea [18] = assay: Post-emergence herbicidal activity against Portulaca oleracea assessed as growth inhibition at 450 ai g/ha after 20 days by green house test; assay type: functional
Pisum sativum = assay: Post-emergence herbicidal activity against Pisum sativum Zhongwan-2 (pea) assessed as growth inhibition at 450 ai g/ha after 20 days by green house test; conditions: Lathyrus oleraceus
[19] = Toxicity against Zea mays Gao you 1 (maize) assessed as growth inhibition at 300 ai g/ha post-emergent application measured after 20 days by green house crop selectivity test; assay type: organism-based; conditions: Gao you 1, zea mays, in vivo, read-out: GI
Portulaca oleracea [20] = assay: Post-emergence herbicidal activity against Portulaca oleracea assessed as growth inhibition at 300 ai g/ha after 20 days by green house test; assay type: functional
Portulaca oleracea [21] = assay: Post-emergence herbicidal activity against Portulaca oleracea assessed as growth inhibition at 75 ai g/ha after 20 days by green house test; assay type: functional
Daucus carota = assay: Post-emergence herbicidal activity against Daucus carota (carrot) assessed as growth inhibition at 600 ai g/ha after 20 days by green house test; assay type: functional
Cardamine hirsuta = assay: Post-emergence herbicidal activity against Cardamine hirsuta assessed as growth inhibition at 18.75 ai g/ha after 20 days by green house test; assay type: functional
Eclipta prostrata [22] = assay: Post-emergence herbicidal activity against Eclipta prostrata assessed as growth inhibition at 450 ai g/ha after 20 days by green house test; assay type: functional
Medicago sativa [23] = assay: Post-emergence herbicidal activity against Medicago sativa (alfalfa) assessed as growth inhibition at 225 ai g/ha after 20 days by green house test; assay type: functional
Medicago sativa [24] = assay: Post-emergence herbicidal activity against Medicago sativa (alfalfa) assessed as growth inhibition at 300 ai g/ha after 20 days by green house test; assay type: functional

Q: With O=C(O)COc1ccc(Cl)cc1Cl [2,4-DICHLOROPHENOXYACETIC ACID] as the molecule, how does the IC50 (Cucumis sativus [1]) read?
A: The IC50 was 0.228 µM.

Q: And the “growth inhibition (GI)” value (Digitaria sanguinalis [2])?
A: The value was 90%.

Q: And the inhibition at 480 h [3]?
A: Its inhibition at 480 h is 37.5%.

Q: And the “growth inhibition (GI)” value (Digitaria sanguinalis [4])?
A: The value was 10%.

Q: What about the IC50 (Cucumis sativus [5]) of the same molecule?
A: The IC50 was 10.1 µM.

Q: And the inhibition [6]?
A: Its inhibition is 18.5%.

Q: What about the “growth inhibition (GI)” value (Amaranthus spinosus [7]) of the same molecule?
A: Its value is 60%.

Q: And the “growth inhibition (GI)” value (Amaranthus spinosus [8])?
A: The value was 0%.

Q: And the “growth inhibition (GI)” value (Chenopodium album)?
A: Its value is 72.5%.

Q: And the “growth inhibition (GI)” value (Amaranthus retroflexus [9])?
A: Its value is 100%.

Q: And the “growth inhibition (GI)” value (Abutilon theophrasti)?
A: The value was 0%.

Q: What about the IC50 [10] of the same molecule?
A: The IC50 was over 4530 µM.

Q: What about the “growth inhibition (GI)” value (Setaria viridis) of the same molecule?
A: Its value is 0%.

Q: With COP(=O)(OC)C(C)OC(=O)COc1ccc(Cl)cc1Cl (stereo not given) [CLACYFOS] as the molecule, how does the inhibition at 480 h [11] read?
A: Its inhibition at 480 h is 0%.

Q: And the “growth inhibition (GI)” value (Eclipta prostrata [12])?
A: The value was 82.5%.

Q: What about the “growth inhibition (GI)” value (Digitaria sanguinalis [13]) of the same molecule?
A: The value was 32%.

Q: And the “growth inhibition (GI)” value (Amaranthus retroflexus [14])?
A: The value was 65%.

Q: What about the IC50 (Cucumis sativus [1]) of the same molecule?
A: The IC50 was 0.0025 µM.

Q: And the “growth inhibition (GI)” value (Eclipta prostrata [15])?
A: The value was 72%.

Q: What about the “growth inhibition (GI)” value (Digitaria sanguinalis [2]) of the same molecule?
A: Its value is 75%.

Q: And the “growth inhibition (GI)” value [16]?
A: Its value is 90%.

Q: And the inhibition at 480 h [3]?
A: Its inhibition at 480 h is 0%.

Q: And the “growth inhibition (GI)” value (Digitaria sanguinalis [4])?
A: The value was 0%.

Q: And the IC50 (Cucumis sativus [5])?
A: The IC50 was 7.56 µM.

Q: And the inhibition at 480 h [17]?
A: The inhibition at 480 h was 0%.

Q: And the “growth inhibition (GI)” value (Portulaca oleracea [18])?
A: Its value is 100%.

Q: What about the inhibition [6] of the same molecule?
A: Its inhibition is 50.8%.

Q: What about the growth inhibition (GI) (Pisum sativum) of the same molecule?
A: Its growth inhibition (GI) is 97.5%.

Q: What about the “growth inhibition (GI)” value (Amaranthus spinosus [7]) of the same molecule?
A: The value was 90%.

Q: What about the inhibition at 480 h [19] of the same molecule?
A: The inhibition at 480 h was 0%.

Q: What about the “growth inhibition (GI)” value (Amaranthus spinosus [8]) of the same molecule?
A: Its value is 0%.

Q: What about the “growth inhibition (GI)” value (Chenopodium album) of the same molecule?
A: Its value is 92.5%.

Q: And the “growth inhibition (GI)” value (Amaranthus retroflexus [9])?
A: Its value is 100%.

Q: What about the “growth inhibition (GI)” value (Portulaca oleracea [20]) of the same molecule?
A: The value was 95%.

Q: And the “growth inhibition (GI)” value (Portulaca oleracea [21])?
A: The value was 75%.

Q: What about the “growth inhibition (GI)” value (Daucus carota) of the same molecule?
A: Its value is 100%.

Q: What about the “growth inhibition (GI)” value (Abutilon theophrasti) of the same molecule?
A: Its value is 0%.

Q: What about the “growth inhibition (GI)” value (Cardamine hirsuta) of the same molecule?
A: Its value is 75%.

Q: What about the IC50 [10] of the same molecule?
A: The IC50 was 18.2 µM.

Q: And the “growth inhibition (GI)” value (Eclipta prostrata [22])?
A: Its value is 100%.

Q: What about the “growth inhibition (GI)” value (Medicago sativa [23]) of the same molecule?
A: The value was 95%.

Q: What about the “growth inhibition (GI)” value (Medicago sativa [24]) of the same molecule?
A: The value was 97%.

Q: What about the “growth inhibition (GI)” value (Setaria viridis) of the same molecule?
A: The value was 0%.

Q: Which results are given for COP(=O)(COC(=O)COc1cccc(C(F)(F)F)c1)OC?
A: growth inhibition (GI) (Digitaria sanguinalis [2]): 75%; inhibition at 480 h [3]: 32.5%; growth inhibition (GI) (Digitaria sanguinalis [4]): 0%; inhibition [6]: 31.1%; growth inhibition (GI) (Pisum sativum): 10%; growth inhibition (GI) (Amaranthus spinosus [7]): 0%; growth inhibition (GI) (Amaranthus spinosus [8]): 0%; growth inhibition (GI) (Chenopodium album): 32.5%; growth inhibition (GI) (Amaranthus retroflexus [9]): 57.5%; growth inhibition (GI) (Abutilon theophrasti): 0%; IC50 [10]: 442 µM; growth inhibition (GI) (Setaria viridis): 0%
